Reference: ChEMBL document CHEMBL3259629, “Discovery and optimization of piperidyl-1,2,3-triazole ureas as potent, selective, and in vivo-active inhibitors of α/β-hydrolase domain containing 6 (ABHD6)” (J Med Chem, 2013)

Tests used:
Settings in all cases: Neuro2a, 3 nM
[1] = biological target: T1, GPI inositol-deacylase (Mus musculus) (UniProt Q3UUQ7)
T1 sequence (whole entry): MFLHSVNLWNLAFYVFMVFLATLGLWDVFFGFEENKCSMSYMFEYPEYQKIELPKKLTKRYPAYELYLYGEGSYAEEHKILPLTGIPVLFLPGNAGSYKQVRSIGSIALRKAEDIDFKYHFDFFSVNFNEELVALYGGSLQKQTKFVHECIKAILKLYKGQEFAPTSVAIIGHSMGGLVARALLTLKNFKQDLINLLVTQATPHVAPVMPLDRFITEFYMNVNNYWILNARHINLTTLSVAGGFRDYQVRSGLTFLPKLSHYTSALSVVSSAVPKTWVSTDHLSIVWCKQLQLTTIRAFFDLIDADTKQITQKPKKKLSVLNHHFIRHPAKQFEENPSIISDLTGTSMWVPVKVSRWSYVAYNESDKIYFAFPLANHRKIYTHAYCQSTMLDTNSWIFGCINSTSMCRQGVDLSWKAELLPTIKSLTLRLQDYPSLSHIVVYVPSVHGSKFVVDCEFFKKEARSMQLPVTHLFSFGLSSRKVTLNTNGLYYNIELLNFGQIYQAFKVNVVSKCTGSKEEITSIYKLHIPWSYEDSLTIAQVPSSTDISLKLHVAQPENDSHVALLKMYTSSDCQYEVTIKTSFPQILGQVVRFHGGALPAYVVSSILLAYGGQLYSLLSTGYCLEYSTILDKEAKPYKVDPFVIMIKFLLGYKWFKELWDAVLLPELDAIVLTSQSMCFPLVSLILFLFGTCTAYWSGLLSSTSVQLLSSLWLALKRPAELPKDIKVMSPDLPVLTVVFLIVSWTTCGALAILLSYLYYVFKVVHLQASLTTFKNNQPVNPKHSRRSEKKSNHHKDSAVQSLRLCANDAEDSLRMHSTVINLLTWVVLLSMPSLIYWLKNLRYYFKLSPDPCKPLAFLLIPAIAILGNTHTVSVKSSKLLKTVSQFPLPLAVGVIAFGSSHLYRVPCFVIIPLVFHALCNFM
Description: Inhibition of Pgap1 in mouse Neuro2a cells at 3 nM after 4 hrs by ABPP-SILAC assay

[2] = biological target: T2, Diacylglycerol lipase-beta (Mus musculus) (UniProt Q91WC9)
T2 sequence (whole entry): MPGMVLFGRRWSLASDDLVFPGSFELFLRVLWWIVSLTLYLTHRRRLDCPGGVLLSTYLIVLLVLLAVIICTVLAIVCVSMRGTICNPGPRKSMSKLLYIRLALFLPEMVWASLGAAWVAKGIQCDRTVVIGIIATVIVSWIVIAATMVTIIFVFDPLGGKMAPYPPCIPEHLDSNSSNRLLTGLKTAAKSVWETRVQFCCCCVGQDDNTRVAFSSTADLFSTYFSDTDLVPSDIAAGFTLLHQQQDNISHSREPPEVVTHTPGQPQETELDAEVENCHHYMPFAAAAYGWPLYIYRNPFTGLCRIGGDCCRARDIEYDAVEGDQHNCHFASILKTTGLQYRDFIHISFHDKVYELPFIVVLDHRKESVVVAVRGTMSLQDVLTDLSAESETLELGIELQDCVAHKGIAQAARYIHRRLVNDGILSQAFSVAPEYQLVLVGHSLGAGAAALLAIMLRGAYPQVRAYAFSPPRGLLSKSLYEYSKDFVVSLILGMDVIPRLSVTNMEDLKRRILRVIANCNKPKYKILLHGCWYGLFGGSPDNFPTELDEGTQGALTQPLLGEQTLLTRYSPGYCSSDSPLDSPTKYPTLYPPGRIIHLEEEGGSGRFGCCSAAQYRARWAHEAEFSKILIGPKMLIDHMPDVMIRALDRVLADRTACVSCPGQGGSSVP
Description: Inhibition of Daglb in mouse Neuro2a cells at 3 nM after 4 hrs by ABPP-SILAC assay

[3] = biological target: T3, Acylamino-acid-releasing enzyme (Mus musculus) (UniProt Q8R146)
T3 sequence (whole entry): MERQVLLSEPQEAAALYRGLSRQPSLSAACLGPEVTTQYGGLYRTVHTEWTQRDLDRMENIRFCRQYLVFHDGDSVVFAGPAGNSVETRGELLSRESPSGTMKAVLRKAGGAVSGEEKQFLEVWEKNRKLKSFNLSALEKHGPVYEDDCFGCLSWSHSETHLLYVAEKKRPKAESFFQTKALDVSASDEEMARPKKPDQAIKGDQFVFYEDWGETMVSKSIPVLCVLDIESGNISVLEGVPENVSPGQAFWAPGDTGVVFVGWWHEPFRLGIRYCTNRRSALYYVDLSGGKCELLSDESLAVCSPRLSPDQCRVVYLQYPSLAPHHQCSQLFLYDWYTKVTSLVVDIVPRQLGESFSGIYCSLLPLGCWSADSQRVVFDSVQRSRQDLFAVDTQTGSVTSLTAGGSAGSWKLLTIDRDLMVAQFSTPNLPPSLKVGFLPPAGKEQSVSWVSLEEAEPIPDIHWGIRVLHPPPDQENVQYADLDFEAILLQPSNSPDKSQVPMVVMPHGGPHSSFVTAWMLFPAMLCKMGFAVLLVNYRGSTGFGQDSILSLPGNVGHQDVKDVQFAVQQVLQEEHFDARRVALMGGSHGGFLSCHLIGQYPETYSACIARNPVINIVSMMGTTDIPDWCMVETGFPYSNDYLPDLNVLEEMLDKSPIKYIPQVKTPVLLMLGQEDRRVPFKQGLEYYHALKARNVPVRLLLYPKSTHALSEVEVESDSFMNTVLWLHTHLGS
Description: Inhibition of Apeh in mouse Neuro2a cells at 3 nM after 4 hrs by ABPP-SILAC assay

[4] = biological target: T4, S-formylglutathione hydrolase (Mus musculus) (UniProt Q9R0P3)
T4 sequence (whole entry): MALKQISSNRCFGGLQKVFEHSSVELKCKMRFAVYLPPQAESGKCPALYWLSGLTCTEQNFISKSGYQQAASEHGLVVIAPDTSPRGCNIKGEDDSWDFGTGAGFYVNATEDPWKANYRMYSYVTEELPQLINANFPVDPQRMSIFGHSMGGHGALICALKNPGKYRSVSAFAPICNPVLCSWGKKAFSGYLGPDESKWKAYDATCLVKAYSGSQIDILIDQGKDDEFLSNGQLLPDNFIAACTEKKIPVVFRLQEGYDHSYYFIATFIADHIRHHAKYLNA
Description: Inhibition of Esd in mouse Neuro2a cells at 3 nM after 4 hrs by ABPP-SILAC assay

[5] = biological target: Platelet-activating factor acetylhydrolase 2, cytoplasmic (Mus musculus) (UniProt Q8VDG7)
Sequence of Platelet-activating factor acetylhydrolase 2, cytoplasmic (Mus musculus) (Q8VDG7 whole entry): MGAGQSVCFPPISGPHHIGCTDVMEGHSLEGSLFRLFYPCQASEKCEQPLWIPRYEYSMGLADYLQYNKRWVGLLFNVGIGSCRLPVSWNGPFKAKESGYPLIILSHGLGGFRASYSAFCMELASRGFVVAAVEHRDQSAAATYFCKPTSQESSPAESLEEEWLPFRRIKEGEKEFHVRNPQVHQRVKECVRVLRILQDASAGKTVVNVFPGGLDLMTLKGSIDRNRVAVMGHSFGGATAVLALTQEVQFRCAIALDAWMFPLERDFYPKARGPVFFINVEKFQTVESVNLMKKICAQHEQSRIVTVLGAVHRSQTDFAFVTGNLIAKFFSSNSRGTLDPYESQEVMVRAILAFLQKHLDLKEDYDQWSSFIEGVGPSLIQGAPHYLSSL
Description: Inhibition of Pafah2 in mouse Neuro2a cells at 3 nM after 4 hrs by ABPP-SILAC assay

Measured: inhibition

O=C(c1cccc(-c2ccc(-c3cn(C(=O)N4CCCCC4c4ccccc4)nn3)cc2)c1)N1CCCCC1 (racemic)
< 50%: all assays above

O=C(N1CCCCC1c1ccccc1)n1cc(-c2ccc(-c3cccc(CO)c3)cc2)nn1 (racemic)
< 50%: all assays above

O=C(O)c1cccc(-c2ccc(-c3cn(C(=O)N4CCCCC4Cc4ccccc4)nn3)cc2)c1 (racemic)
< 50%: all assays above
